The text below walks through data of patent US12492188B2, “1H-benzo[D]imidazole derivatives as TLR9 inhibitors for the treatment of fibrosis” (BRISTOL-MYERS SQUIBB COMPANY, priority 2020, dated 2025).

Molecules are shown by their SMILES. Like-named read-outs stand apart in the source and are kept apart here. A value given as a limit tells only on which side of the number the result lay.

What all share (format): cell-based
The target in one assay is T1, human TLR7 (Homo sapiens, UniProt Q9NYK1).
T1 construct: host or cells: HEK-Blue cells (HEK293-derived reporter line)
T1 sequence (Q9NYK1 27-1049): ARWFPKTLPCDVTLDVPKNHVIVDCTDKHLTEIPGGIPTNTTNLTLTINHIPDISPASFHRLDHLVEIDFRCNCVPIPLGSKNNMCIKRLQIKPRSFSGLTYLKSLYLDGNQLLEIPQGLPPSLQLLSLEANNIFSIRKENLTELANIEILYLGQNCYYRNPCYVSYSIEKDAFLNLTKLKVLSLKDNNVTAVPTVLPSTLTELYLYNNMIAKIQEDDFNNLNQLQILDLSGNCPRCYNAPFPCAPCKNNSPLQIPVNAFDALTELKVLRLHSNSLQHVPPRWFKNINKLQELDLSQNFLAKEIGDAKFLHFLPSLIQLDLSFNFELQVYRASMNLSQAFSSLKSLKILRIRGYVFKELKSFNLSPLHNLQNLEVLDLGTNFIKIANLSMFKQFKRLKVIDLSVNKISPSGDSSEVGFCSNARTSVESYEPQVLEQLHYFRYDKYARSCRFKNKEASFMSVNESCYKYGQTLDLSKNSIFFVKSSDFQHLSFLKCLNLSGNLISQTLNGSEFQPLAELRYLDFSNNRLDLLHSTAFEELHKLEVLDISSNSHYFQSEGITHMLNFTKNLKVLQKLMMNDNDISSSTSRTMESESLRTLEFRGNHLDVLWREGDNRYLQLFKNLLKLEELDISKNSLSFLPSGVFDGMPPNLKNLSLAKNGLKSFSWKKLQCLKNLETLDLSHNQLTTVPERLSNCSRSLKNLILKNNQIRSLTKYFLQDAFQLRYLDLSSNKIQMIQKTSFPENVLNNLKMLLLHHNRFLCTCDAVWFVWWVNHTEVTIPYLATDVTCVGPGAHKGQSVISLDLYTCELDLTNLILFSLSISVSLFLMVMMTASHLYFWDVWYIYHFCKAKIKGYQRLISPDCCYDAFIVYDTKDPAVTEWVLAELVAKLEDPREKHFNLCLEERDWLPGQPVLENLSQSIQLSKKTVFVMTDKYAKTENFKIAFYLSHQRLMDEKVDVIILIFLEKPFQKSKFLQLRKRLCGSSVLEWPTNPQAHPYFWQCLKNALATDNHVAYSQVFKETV
Put plainly: TLR7 inhibition reporter assay (HEK-Blue cells, secreted embryonic alkaline phosphatase reporter). As to conditions: HEK-Blue cells overexpressing human TLR7, stimulated with gardiquimod 7.5 μM; read-out: TLR 7 IC50. The procedure, abridged:
(§1)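 HEK-Blue cells overexpressing the respective receptor, with an NF-κB/AP-1-driven SEAP reporter, were pre-treated with compound (0.05 nM–50 μM) for 30 min at room temperature. Stimulation used gardiquimod 7.5 μM (TLR7), R848 15.9 μM (TLR8) or ODN2006 5 nM (TLR9); SEAP was read after 22 h at 37 °C as percent inhibition.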
A general note: A reporter such as luciferase makes a cellular process visible.

The target of another assay is T2, human TLR9 (Homo sapiens, UniProt Q9NR96).
T2 construct: host or cells: HEK-Blue cells (HEK293-derived reporter line)
T2 sequence (Q9NR96 26-1032): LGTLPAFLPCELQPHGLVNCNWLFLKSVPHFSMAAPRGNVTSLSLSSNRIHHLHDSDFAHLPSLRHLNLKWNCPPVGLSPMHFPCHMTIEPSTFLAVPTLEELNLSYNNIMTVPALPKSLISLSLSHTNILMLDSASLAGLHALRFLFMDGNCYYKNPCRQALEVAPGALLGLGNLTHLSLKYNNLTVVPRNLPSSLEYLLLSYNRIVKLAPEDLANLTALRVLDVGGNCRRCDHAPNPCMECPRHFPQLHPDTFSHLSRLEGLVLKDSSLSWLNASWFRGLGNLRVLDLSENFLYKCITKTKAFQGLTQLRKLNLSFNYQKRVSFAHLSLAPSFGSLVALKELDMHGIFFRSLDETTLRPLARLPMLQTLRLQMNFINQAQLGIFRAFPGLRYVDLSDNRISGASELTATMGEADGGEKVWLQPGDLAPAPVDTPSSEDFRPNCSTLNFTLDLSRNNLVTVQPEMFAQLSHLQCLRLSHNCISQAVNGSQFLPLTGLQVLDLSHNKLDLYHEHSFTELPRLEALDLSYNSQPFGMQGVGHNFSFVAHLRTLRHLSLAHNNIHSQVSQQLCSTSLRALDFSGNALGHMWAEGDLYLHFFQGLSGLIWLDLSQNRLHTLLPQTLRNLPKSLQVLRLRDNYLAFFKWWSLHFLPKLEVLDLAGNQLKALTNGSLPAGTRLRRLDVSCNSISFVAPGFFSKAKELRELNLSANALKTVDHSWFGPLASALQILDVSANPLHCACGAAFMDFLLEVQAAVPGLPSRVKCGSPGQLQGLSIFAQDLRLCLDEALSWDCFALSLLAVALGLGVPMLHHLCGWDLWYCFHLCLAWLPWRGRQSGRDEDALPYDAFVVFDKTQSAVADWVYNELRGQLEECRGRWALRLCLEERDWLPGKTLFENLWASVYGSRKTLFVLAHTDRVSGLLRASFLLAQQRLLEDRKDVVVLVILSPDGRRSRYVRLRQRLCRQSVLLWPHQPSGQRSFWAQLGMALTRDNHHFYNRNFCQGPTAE
Put plainly: TLR9 inhibition reporter assay (HEK-Blue cells, secreted embryonic alkaline phosphatase reporter). The procedure, abridged: as §1

The target of the next assay is T3, human TLR8 (Homo sapiens, UniProt Q9NR97).
T3 construct: host or cells: HEK-Blue cells (HEK293-derived reporter line)
T3 sequence (Q9NR97 27-1041): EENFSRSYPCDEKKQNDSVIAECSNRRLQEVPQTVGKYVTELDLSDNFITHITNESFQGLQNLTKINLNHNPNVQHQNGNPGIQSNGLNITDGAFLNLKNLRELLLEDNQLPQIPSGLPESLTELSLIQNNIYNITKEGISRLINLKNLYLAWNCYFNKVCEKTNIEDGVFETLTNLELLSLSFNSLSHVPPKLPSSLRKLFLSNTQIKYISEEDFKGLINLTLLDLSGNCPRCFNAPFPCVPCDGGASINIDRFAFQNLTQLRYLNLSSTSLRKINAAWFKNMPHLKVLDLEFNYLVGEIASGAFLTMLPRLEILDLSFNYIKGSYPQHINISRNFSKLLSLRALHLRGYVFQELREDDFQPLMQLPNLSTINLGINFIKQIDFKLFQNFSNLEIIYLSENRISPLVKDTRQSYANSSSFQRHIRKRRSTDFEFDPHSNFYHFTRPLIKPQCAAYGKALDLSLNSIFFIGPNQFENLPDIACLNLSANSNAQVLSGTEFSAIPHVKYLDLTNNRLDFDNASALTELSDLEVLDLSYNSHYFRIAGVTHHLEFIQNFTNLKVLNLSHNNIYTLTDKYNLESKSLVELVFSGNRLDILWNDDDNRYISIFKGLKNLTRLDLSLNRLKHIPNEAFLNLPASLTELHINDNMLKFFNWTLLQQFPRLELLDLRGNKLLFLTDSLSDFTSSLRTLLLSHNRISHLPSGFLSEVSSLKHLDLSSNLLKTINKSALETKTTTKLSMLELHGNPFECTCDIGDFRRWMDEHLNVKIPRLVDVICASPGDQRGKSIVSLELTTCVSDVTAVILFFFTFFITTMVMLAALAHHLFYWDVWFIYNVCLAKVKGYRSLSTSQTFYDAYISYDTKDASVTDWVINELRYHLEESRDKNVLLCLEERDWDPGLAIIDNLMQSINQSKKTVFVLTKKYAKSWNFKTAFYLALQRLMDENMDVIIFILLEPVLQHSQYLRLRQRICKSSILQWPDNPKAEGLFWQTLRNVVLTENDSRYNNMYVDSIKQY
Put plainly: TLR8 inhibition reporter assay (HEK-Blue cells, secreted embryonic alkaline phosphatase reporter). Conditions: HEK-Blue cells overexpressing human TLR8, stimulated with R848 15.9 μM; read-out: TLR 8 IC50. The procedure, abridged:
as §1

The mark [1] stands for this setting: HEK-Blue cells overexpressing human TLR9, stimulated with ODN2006 5 nM, read-out: TLR 9 IC50.

As for `COCCN1C2CCC1CC(N1CCC(c3cc4nc(-c5ccc(S(C)(=O)=O)cc5)n(C)c4cc3F)CC1)C2` (stereo not shown) [Example 258, 6-fluoro-5-(1-(8-(2-methoxyethyl)-8-azabicyclo[3.2.1]octan-3-yl)piperidin-4-yl)-1-methyl-2-(4-(methylsulfonyl)phenyl)-1H-benzo[d]imidazole], the IC50 was 18.8 µM on human TLR7, 0.1 µM on human TLR9, 0.1 µM on human TLR9 (setting [1]) and more than 50 µM at human TLR8.
With `CC(C)CN1CCC(N2CCC(c3ccc4nc(-c5ccc(S(C)(=O)=O)cc5)n(C)c4c3F)CC2)CC1` [Example 259, 7-fluoro-6-(1′-isobutyl-[1,4′-bipiperidin]-4-yl)-1-methyl-2-(4-(methylsulfonyl)phenyl)-1H-benzo[d]imidazole], the IC50 is more than 50 µM on human TLR7, 0.5 µM at human TLR9, 0.5 µM at human TLR9 (setting [1]) and more than 50 µM on human TLR8.
As for `Cn1c(-c2ccc(S(C)(=O)=O)cc2)nc2ccc(C3CCN(C4CCN(C5CC5)CC4)CC3)c(F)c21` [Example 260, 6-(1′-cyclopropyl-[1,4′-bipiperidin]-4-yl)-7-fluoro-1-methyl-2-(4-(methylsulfonyl)phenyl)-1H-benzo[d]imidazole], the IC50 on human TLR7 was 21.5 µM; against human TLR9, 0.66 µM; at human TLR9 (setting [1]) it was 0.66 µM; at human TLR8 it was more than 50 µM.
As to `Cn1c(-c2ccc(S(C)(=O)=O)cc2)nc2ccc(C3CCN(C4CCN(CC5CC5)CC4)CC3)c(F)c21` [Example 261, 6-(1′-(cyclopropylmethyl)-[1,4′-bipiperidin]-4-yl)-7-fluoro-1-methyl-2-(4-(methylsulfonyl)phenyl)-1H-benzo[d]imidazole], the IC50 on human TLR7 was 7.9 µM; at human TLR9, 0.15 µM; on human TLR9 (setting [1]), 0.154 µM; on human TLR8, more than 50 µM.
The matching figures for `Cn1c(-c2ccc(S(C)(=O)=O)cc2)nc2ccc(C3CCN(C4CCN(C5CCC5)CC4)CC3)c(F)c21` [Example 262, 6-(1′-cyclobutyl-[1,4′-bipiperidin]-4-yl)-7-fluoro-1-methyl-2-(4-(methylsulfonyl)phenyl)-1H-benzo[d]imidazole]: 14.1 µM, 0.17 µM, 0.171 µM and more than 50 µM.
In the same order, the values of `Cn1c(-c2ccc(S(C)(=O)=O)cc2)nc2ccc(C3CCN(C4CCN(C5CCOCC5)CC4)CC3)c(F)c21` [Example 264, 7-fluoro-1-methyl-2-(4-(methylsulfonyl)phenyl)-6-(1′-(tetrahydro-2H-pyran-4-yl)-[1,4′-bipiperidin]-4-yl)-1H-benzo[d]imidazole] are 2.3 µM, 0.28 µM, 0.281 µM and 20.7 µM.
Turning to `COCCN1CCC(N2CCC(c3ccc4nc(-c5ccc(S(C)(=O)=O)cc5)n(C)c4c3F)CC2)CC1` [Example 265, 7-fluoro-6-(1′-(2-methoxyethyl)-[1,4′-bipiperidin]-4-yl)-1-methyl-2-(4-(methylsulfonyl)phenyl)-1H-benzo[d]imidazole], the IC50 at human TLR7 was 7.6 µM; against human TLR9, 1 µM; at human TLR9 (setting [1]), 1.04 µM; at human TLR8, more than 50 µM.
In the case of `Cn1c(-c2ccc(S(C)(=O)=O)cc2)nc2ccc(C3CCN(C4CC5CCC(C4)N5CC4CC4)CC3)c(F)c21` (stereo not shown) [Example 268, 6-(1-(8-(cyclopropylmethyl)-8-azabicyclo[3.2.1]octan-3-yl)piperidin-4-yl)-7-fluoro-1-methyl-2-(4-(methylsulfonyl)phenyl)-1H-benzo[d]imidazole], the IC50 was 27.6 µM on human TLR7, 0.06 µM against human TLR9, 0.06 µM on human TLR9 (setting [1]) and more than 50 µM at human TLR8.
For `Cn1c(-c2ccc(S(C)(=O)=O)cc2)nc2ccc(C3CCN(C4CC5CCC(C4)N5CC4CC4)CC3)c(F)c21` (stereo not shown) [Example 269, 6-(1-(8-(cyclopropylmethyl)-8-azabicyclo[3.2.1]octan-3-yl)piperidin-4-yl)-7-fluoro-1-methyl-2-(4-(methylsulfonyl)phenyl)-1H-benzo[d]imidazole], the IC50 on human TLR7 worked out at 12 µM; at human TLR9 it was 0.18 µM; on human TLR9 (setting [1]), 0.176 µM; at human TLR8, 21.5 µM.
Regarding `Cn1c(-c2ccc(S(C)(=O)=O)cc2)nc2ccc(C3CCN(C4CC5CCC(C4)N5C4COC4)CC3)c(F)c21` (stereo not shown) [Example 273, 7-fluoro-1-methyl-2-(4-(methylsulfonyl)phenyl)-6-(1-(8-(oxetan-3-yl)-8-azabicyclo[3.2.1]octan-3-yl)piperidin-4-yl)-1H-benzo[d]imidazole], the IC50 was 7.5 µM on human TLR7, 0.3 µM on human TLR9, 0.303 µM on human TLR9 (setting [1]) and more than 50 µM at human TLR8.

The IC50 is the concentration that gives 50% inhibition.
